Measurements as given in patent US9492428B2, “Compounds, compositions, pharmaceutical compositions, and methods of use” (University of Louisville Research Foundation, Inc., priority 2011, dated 2016).

What was measured:
Format in all cases: cell-based, human
[1] = test system: DU145 cells; assay: Flow cytometric analysis of cell cycle (propidium iodide) in DU145
Experimental: FIG. 9. Effect of compound I-1 at 5 μM on cell cycle and apoptosis. Cells were then harvested by trypsinization. (A) For flow cytometric analysis of cell cycle parameters, cells were fixed, and stained with propidium iodide. Each histogram indicates the percent of cells in G1, S, and G2/M phases of the cell cycle. Data were gated to exclude apoptotic cells for these calculations. (B) For apoptosis detection, cells were incubated with FITC-conjugated Annexin V and propidium iodide. Flow cytometric analysis was performed and the histogram for each sample was split into four quadrants to indicate: viable cells (lower left quadrant), apoptotic cells (lower right quadrant), necrotic cells (upper left quadrant), and necrotic/late apoptotic cells (upper right quadrant).
FIG. 10. Flow cytometric analysis of cell cycle parameters. DU145 prostate cancer cells were incubated for 24 h (A) or for 48 h (B) in the presence of 10 μM compound I-1 or vehicle (DMSO), or without additive (untreated). Cells were then harvested by trypsinization, fixed, and stained with propidium iodide for analysis by flow cytometry. Each histogram indicates the percent of cells in G1, S, and G2/M phases of the cell cycle. Data were gated to exclude apoptotic cells for these calculations. A small population of aneuploid cells with >4n DNA content, which became apparent in the cells treated with compound I-1, is also indicated (percentage underlined).
Flow cytometric assays of cell cycle and cell death. Cells in fresh complete medium were plated (2×10^5 per well) into six-well plates for 18 h. After complete adhesion, cells were treated as indicated in the figures and harvested by trypsinization. For cell cycle distribution, cells were fixed, and stained with propidium iodide using the Cycle Test Plus kit (Becton Dickinson). For cell death detection, cells were stained with Annexin-V-FITC and propidium iodide using the Apoptosis Detection Kit (BD Biosciences), according to the manufacturer's instructions. Cells were then analyzed by flow cytometry using a FACScalibur cytometer (BD Biosciences, Mountain View, Calif.) and FlowJo program (Tree Star, Inc., Ashland, Oreg.).

[2] = test system: DU145 cells; assay: Immunofluorescence (confocal) microscopy, α-tubulin and DAPI; conditions: 10 μM
Experimental: FIG. 14. Fluorescent microscopy of DU145 prostate cancer cells. DU145 cells were plated in culture dishes designed for confocal microscopy and allowed to adhere for 18 hours at 37° C. They were then for incubated for a further 24 and 48 h with 10 μM compound I-1 or 48 h with vehicle (DMSO). After that, cells were washed with cold PBS, fixed with 4% paraformaldehyde, and permeabilized with 0.1% Triton 100X. Cells were stained with 4′6-diamidino-2-phenylindole (DAPI), which binds to DNA, and with anti-α-tubulin antibody labeled with Alexa Fluor 488 to show the location of microtubules. Scale bars indicate a length of […], arrows indicate cells with evidence of aberrant mitosis, and asterisks indicate cells with apoptotic morphology.
Immunofluorescence microscopy. Cells (2.5×10^4) in fresh complete culture medium were plated on 18 mm diameter glass cover slips for 18 h. The medium was replaced with complete medium containing 10 μM compound I-1 or an equivalent volume of vehicle (DMSO) and incubated for 24 or 48 h. After incubation, cells were washed 3 times with ice-cold PBS, fixed in 4% paraformaldehyde in PBS for 30 min at room temperature, and washed three times with PBS. Cells were permeabilized for 1 min in PBS containing 0.1% Triton X-100, and washed three times with PBS. […]

[3] = test system: DU145 cells; assay: Clonogenic assay in DU145
Experimental: FIG. 7. Clonogenic assays in prostate cancer cells treated with compound I-1. Prostate cancer cells, DU145 (A) or PC3 (B), were plated at very low density in 6-well plates and incubated 18 h at 37° C. Cells were treated by addition of various concentrations of compound I-1 or with an equivalent volume of vehicle (DMSO), or were left untreated. After 10 days of treatment, cells were washed with cold PBS, fixed with paraformaldehyde, and stained with crystal violet solution.
Clonogenic Assay. Cells in fresh complete medium were plated at very low density (3×10^2 per well) into six-well plates for 18 h. After complete adhesion, cells were treated with compound I-1 by adding directly to the medium to give the concentration indicated in the figures. Cells were allowed to grow until visible colonies formed (10 days). Cell colonies were fixed with 4% paraformaldehyde in PBS (phosphate-buffered saline), stained with 0.25% crystal violet in 25% methanol, washed and air-dried.

C[C@@H]1CC[C@H]2C3C(O[C@]4([C@]5(O)CC6(C)C(=O)OC5C[C@@]6(C)O)CC[C@@]31O4)[C@H]1O[C@]13CC=CC(=O)[C@]23C (some centres unmarked) [I-1]
cell cycle parameters ([1]; 5 μM): not perturbed | population of aneuploid cells that contain more than 4n DNA ([1]; 10 μM): additional peak to the right of the G2/M peak | fraction of cells in phase ([1]; 10 μM, 24 h): 8% | proportion of cells in G2/M phases ([1]; 10 μM, 24 h): 49% | proportion of cells in S phase ([1]; 10 μM, 24 h): 37% | fraction of cell in G2/M ([1]; 10 μM, 48 h): 66% | percentage of cells in S phase ([1]; 10 μM, 48 h): decreased | cells with evidence of aberrant mitosis ([2]; 24 h): increased number | cells with evidence of abnormal mitosis or apoptosis ([2]; 48 h): almost all of the cells | effect on colony formation ([3]; 2.5 μM, 10 days): Inhibitory effects | concentration that blocked the capacity of single cancer cells to generate colonies ([3]; 10 days of treatment): ≥ 5 µM
